The values that follow come from ChEMBL document CHEMBL1201862, “PubChem BioAssay data set” (2004).

Test systems include EKVX; Malme-3M; CCRF-CEM; MDA-MB-231; PC-3; SK-MEL-5; HCC 2998; LOX IMVI; HOP-62; MCF7; SW-620; MOLT-4; OVCAR-4; TK-10; IGROV-1; ACHN; A498; COLO 205; KM12; OVCAR-3.
Common to all, as to assay: growth of human tumour cells (NCI), 48 h

SMILES strings stand for the structures.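 Following 48 hours of exposure in 96-well plates, responses at five concentrations were used to interpolate endpoints linearly. GI50 is the concentration that inhibits growth by half.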 Active and inactive are the calls of the source. Cut-off read from the data, not from the text of the source: active = GI50 up to about 1.1 µM and inactive = higher.

Regarding `O=C1c2nc3n(c2C(=O)c2c1nc1n2CCC1)CCC3`, the GI50 with EKVX is 15.6 µM (inactive); with Malme-3M, 0.904 µM (active); in the experiment with CCRF-CEM, 6.41 µM (inactive); in the experiment on MDA-MB-231 it was > 10 µM (inactive); with PC-3, > 10 µM (inactive); with SK-MEL-5, 1.44 µM (inactive). In addition, the GI50 is 8.22 µM (inactive) in the experiment on HCC 2998; 3.1 µM (inactive) in the experiment with LOX IMVI; 4.62 µM (inactive) in the experiment on HOP-62; 2.68 µM (inactive) with MCF7; 5.13 µM (inactive) in the experiment with SW-620; 5.46 µM (inactive) in the experiment on MOLT-4. Further, the GI50 was 4.71 µM (inactive) with OVCAR-4; 27.6 µM (inactive) in the experiment with TK-10; 11.5 µM (inactive) with IGROV-1; 10.9 µM (inactive) with ACHN; 16 µM (inactive) with A498; 5.89 µM (inactive) in the experiment on COLO 205. Also, the GI50 in the experiment on KM12 was 4.41 µM (inactive); with OVCAR-3, 2.71 µM (inactive).

As to `N#Cc1c(N2CCN(c3ccc([N+](=O)[O-])cc3)CC2)[n+]([O-])c2ccc(Cl)cc2[n+]1[O-]`, the GI50 in the experiment on EKVX is 1.71 µM (inactive); in the experiment on Malme-3M, 2 µM (inactive); with CCRF-CEM, 0.29 µM (active); in the experiment with MDA-MB-231, 1.04 µM (active); in the experiment on PC-3, 0.836 µM (active); with SK-MEL-5, 6.38 µM (inactive). Besides, the GI50 with HCC 2998 was 0.944 µM (active); in the experiment on LOX IMVI it was 0.459 µM (active); with HOP-62, 0.521 µM (active); in the experiment on MCF7, 0.973 µM (active); with SW-620 it was 0.646 µM (active); in the experiment on MOLT-4, 1.18 µM (inactive). Also, the GI50 in the experiment on OVCAR-4 was 1.18 µM (inactive); in the experiment with TK-10, 2.54 µM (inactive); in the experiment with IGROV-1 it was 0.318 µM (active); in the experiment with ACHN, 0.789 µM (active); in the experiment with A498, 0.575 µM (active); in the experiment with COLO 205, 3.24 µM (inactive). The GI50 in the experiment on KM12 was 1.7 µM (inactive); in the experiment on OVCAR-3, 0.745 µM (active).

`CC12OOC(c3ccccc31)c1c2ccc2ccccc12` (stereo not given): the GI50 in the experiment with EKVX is 5.45 µM (inactive); with Malme-3M it was 2.3 µM (inactive); with CCRF-CEM, 0.904 µM (active); with MDA-MB-231, 12 µM (inactive); with PC-3, 5.66 µM (inactive); with SK-MEL-5, 8.53 µM (inactive). Moreover, the GI50 is 5.05 µM (inactive) in the experiment on HCC 2998; 2.12 µM (inactive) with LOX IMVI; 16.2 µM (inactive) in the experiment with HOP-62; 13.2 µM (inactive) with MCF7; 1.95 µM (inactive) in the experiment on SW-620; 1.6 µM (inactive) in the experiment on MOLT-4. For the same compound, the GI50 is 0.8 µM (active) in the experiment on OVCAR-4; 9.68 µM (inactive) in the experiment on TK-10; 1.53 µM (inactive) in the experiment on IGROV-1; 1.73 µM (inactive) in the experiment with ACHN; 17.6 µM (inactive) with A498; 1.71 µM (inactive) in the experiment with COLO 205. The GI50 was 2.62 µM (inactive) in the experiment with KM12 and 2.26 µM (inactive) in the experiment on OVCAR-3.

As to `O=C(O)CC(CC(=O)O)C(=O)O` [TRICARBALLYLIC ACID], the GI50 in the experiment on EKVX, in the experiment with Malme-3M, in the experiment on CCRF-CEM, in the experiment with MDA-MB-231, in the experiment on PC-3 and in the experiment with SK-MEL-5 was > 100 µM (inactive) in each case. Further, the GI50 in the experiment with HCC 2998, with LOX IMVI, in the experiment with HOP-62, in the experiment with MCF7, in the experiment with SW-620 and in the experiment with MOLT-4 was > 100 µM (inactive) throughout. Further, the GI50 in the experiment with OVCAR-4, in the experiment on TK-10, in the experiment with IGROV-1, with ACHN, with A498 and in the experiment on COLO 205 was > 100 µM (inactive) in each case. The GI50 in the experiment with KM12 and in the experiment on OVCAR-3 was > 100 µM (inactive) in each case.

Turning to `C=C1[C@H](OC(=O)C(C)C)[C@@H](OC(C)=O)[C@@H](OC(C)=O)C(C)(C)[C@@H]2O[C@H]2[C@@H](C)C(=O)[C@@]2(OC(C)=O)C[C@@](C)(OC(C)=O)[C@H](OC(C)=O)[C@@H]2[C@H]1OC(C)=O`, the GI50 in the experiment with EKVX, with Malme-3M, in the experiment with CCRF-CEM, with MDA-MB-231, in the experiment with PC-3 and in the experiment on SK-MEL-5 was > 100 µM (inactive) throughout. In addition, the GI50 with HCC 2998, in the experiment on LOX IMVI, in the experiment on HOP-62, in the experiment on MCF7, with SW-620 and with MOLT-4 was > 100 µM (inactive) each time. Moreover, the GI50 in the experiment with OVCAR-4, with TK-10, in the experiment on IGROV-1, in the experiment with ACHN, in the experiment with A498 and with COLO 205 was > 100 µM (inactive) each time. The GI50 in the experiment with KM12 and in the experiment on OVCAR-3 was > 100 µM (inactive) throughout.

Take `COc1ccc(/C=C2\CCCCCC2=O)cc1`: the GI50 with EKVX, in the experiment with Malme-3M, in the experiment with CCRF-CEM, with MDA-MB-231, in the experiment on PC-3 and in the experiment on SK-MEL-5 was > 100 µM (inactive) in each case. Besides, the GI50 in the experiment on HCC 2998, in the experiment with LOX IMVI, in the experiment with HOP-62, in the experiment with MCF7, in the experiment on SW-620 and in the experiment with MOLT-4 was > 100 µM (inactive) throughout. The GI50 in the experiment on OVCAR-4, with TK-10, in the experiment with IGROV-1, with ACHN, with A498 and in the experiment on COLO 205 was > 100 µM (inactive) in each case. Besides, the GI50 in the experiment on KM12 and in the experiment with OVCAR-3 was > 100 µM (inactive) each time.

As to `COCCNC1CCC(=O)c2[nH]c3ccccc3c21` (stereo not given), the GI50 in the experiment on EKVX was 27.1 µM (inactive); with Malme-3M it was > 100 µM (inactive); with CCRF-CEM it was > 100 µM (inactive); in the experiment with MDA-MB-231, > 100 µM (inactive); with PC-3 it was > 100 µM (inactive); in the experiment on SK-MEL-5 it was > 100 µM (inactive). The GI50 with HCC 2998 is > 100 µM (inactive); with LOX IMVI, 94.4 µM (inactive); in the experiment with HOP-62, > 100 µM (inactive); with MCF7, > 100 µM (inactive); with SW-620 it was > 100 µM (inactive); in the experiment with MOLT-4, > 100 µM (inactive). The GI50 in the experiment with OVCAR-4, in the experiment with TK-10, in the experiment with IGROV-1, in the experiment with ACHN, in the experiment with A498 and in the experiment on COLO 205 was > 100 µM (inactive) each time. In addition, the values for the GI50 in the experiment with KM12 and in the experiment with OVCAR-3 were > 100 µM (inactive) and 40.2 µM (inactive), respectively.

For `O=C(c1ccccc1)N1C(=S)N(c2ccccn2)C(=N/c2ccccc2)/C1=N\c1ccccc1`, the GI50 in the experiment on EKVX was 24 µM (inactive); with Malme-3M it was 20 µM (inactive); in the experiment with CCRF-CEM, 2.57 µM (inactive); with MDA-MB-231 it was 23.3 µM (inactive); in the experiment with PC-3 it was 9.84 µM (inactive); in the experiment on SK-MEL-5, 19.1 µM (inactive). For the same compound, the GI50 in the experiment with HCC 2998 is > 93.5 µM (inactive); with LOX IMVI it was 12.4 µM (inactive); with HOP-62 it was 27.4 µM (inactive); with MCF7, 60.8 µM (inactive); in the experiment on SW-620 it was 5.19 µM (inactive); in the experiment with MOLT-4, 4.01 µM (inactive). In addition, the GI50 with OVCAR-4 was 10.5 µM (inactive); in the experiment with TK-10 it was 25.1 µM (inactive); in the experiment on IGROV-1 it was 13 µM (inactive); in the experiment with ACHN, 9.93 µM (inactive); in the experiment with A498 it was > 66.5 µM (inactive); in the experiment on COLO 205 it was 28.8 µM (inactive). The results for the GI50 in the experiment with KM12 and in the experiment on OVCAR-3 were 5.43 µM (inactive) and 18.2 µM (inactive), respectively.

Turning to `O=c1[nH]c(=O)n([C@H]2C[C@H](O)[C@@H](CO)O2)cc1Br` [BROXURIDINE], the GI50 in the experiment with EKVX was > 100 µM (inactive); in the experiment with Malme-3M, > 85.9 µM (inactive); with CCRF-CEM it was > 64.4 µM (inactive); in the experiment on MDA-MB-231 it was > 100 µM (inactive); in the experiment with PC-3, > 100 µM (inactive); in the experiment with SK-MEL-5 it was > 100 µM (inactive). The GI50 was > 60.3 µM (inactive) with HCC 2998; > 97.1 µM (inactive) in the experiment with LOX IMVI; > 100 µM (inactive) in the experiment on HOP-62; 17.7 µM (inactive) in the experiment on MCF7; > 100 µM (inactive) in the experiment on SW-620; > 100 µM (inactive) in the experiment on MOLT-4. Moreover, the GI50 was > 100 µM (inactive) with OVCAR-4; > 100 µM (inactive) in the experiment with TK-10; > 59.2 µM (inactive) in the experiment with IGROV-1; > 100 µM (inactive) with ACHN; > 100 µM (inactive) with A498; > 100 µM (inactive) in the experiment on COLO 205. Also, the results for the GI50 in the experiment with KM12 and with OVCAR-3 were > 100 µM (inactive) and 25.9 µM (inactive), respectively.

Turning to `COC(=O)c1ccc(NC(=O)O/N=C(\Cl)C(C)C)cc1`, the GI50 in the experiment on EKVX is 3.22 µM (inactive); in the experiment with Malme-3M it was 1.56 µM (inactive); in the experiment with CCRF-CEM, 0.466 µM (active); in the experiment with MDA-MB-231, 7.08 µM (inactive); in the experiment on PC-3 it was 17.3 µM (inactive); in the experiment with SK-MEL-5, 4.53 µM (inactive). For the same compound, the GI50 with HCC 2998 is 14.7 µM (inactive); in the experiment with LOX IMVI it was 1.74 µM (inactive); with HOP-62, 18.7 µM (inactive); in the experiment with MCF7 it was 5.7 µM (inactive); in the experiment on SW-620, 1.93 µM (inactive); with MOLT-4, 1.79 µM (inactive). Also, the GI50 in the experiment on OVCAR-4 was 18.1 µM (inactive); in the experiment with TK-10, 3.05 µM (inactive); in the experiment with IGROV-1, 13.9 µM (inactive); in the experiment on ACHN it was 1.74 µM (inactive); with A498, 18.4 µM (inactive); in the experiment with COLO 205, 1.94 µM (inactive). For the same compound, the GI50 in the experiment on KM12 is 15.1 µM (inactive); with OVCAR-3, 1.97 µM (inactive).
